Data as given in patent EP0188781A1, “1-Oxa-1-dethia-cephalosporin compounds and antibacterial agent comprising the same” (Merck & Co., Inc., priority 1984, dated 1986).

Experiments:
[1] = tested on: Streptococcus faecalis ATCC8043; assay: Minimum inhibitory concentration (MIC) in vitro, antibacterial spectrum; assay type: cell-based
[2] = tested on: Staphylococcus aureus 209 P JC-1; assay: as above; assay type: cell-based
[3] = tested on: Pseudomonas aeruginosa MB3833; assay: as above; assay type: cell-based
[4] = tested on: Serratia marcescens No. 2; assay: as above; assay type: cell-based
[5] = tested on: Proteus rettgeri GN624; assay: as above; assay type: cell-based
[6] = tested on: Salmonella typhimurium LT-2; assay: as above; assay type: cell-based
[7] = tested on: Streptococcus faecalis W-74; assay: as above; assay type: cell-based
[8] = tested on: Pseudomonas aeruginosa E-2; assay: as above; assay type: cell-based
[9] = tested on: Escherichia coli GN206; assay: as above; assay type: cell-based
[10] = tested on: Streptococcus faecalis W-75; assay: as above; assay type: cell-based
[11] = tested on: Pseudomonas aeruginosa MB3829; assay: as above; assay type: cell-based
[12] = tested on: Proteus mirabilis GN79; assay: as above; assay type: cell-based
[13] = tested on: Proteus vulgaris GN76; assay: as above; assay type: cell-based
[14] = tested on: Pseudomonas aeruginosa; assay: Antibacterial activity in vitro, summary in words; assay type: cell-based; details: statement in words on Table 1
Text: Besides, the compounds of Examples 1, 2, 4, 5 and 7 advantageously are also effective against Pseudomonas aeruginosa.

[15] = tested on: Streptococcus faecalis W-73; assay: Minimum inhibitory concentration (MIC) in vitro, antibacterial spectrum; assay type: cell-based
[16] = tested on: Staphylococcus aureus Smith; assay: as above; assay type: cell-based
[17] = Concentration in serum after subcutaneous administration to mice, bioassay with Escherichia coli; assay type: in vivo; details: mouse, sc, 25 mg/kg subcutaneously
Text: For the serum which was separated from the blood samples, the concentration in the serum of the compound administered was bioassayed using Escherichia coli as assay microorganism.

[18] = tested on: Escherichia coli NIHJ JC-2; assay: Minimum inhibitory concentration (MIC) in vitro, antibacterial spectrum; assay type: cell-based
[19] = tested on: Streptococcus faecalis; assay: Antibacterial activity in vitro, summary in words; assay type: cell-based; details: statement in words on Table 1

With CCN1CCN(C(=O)NC(C(=O)N[C@@H]2C(=O)N3C(C(=O)O)=C(CSc4nc(=O)c(O)nn4C)CO[C@H]23)c2csc(N)n2)C(=O)C1=O (single isomer, unassigned) [Compound No. 7] the “Minimum inhibitory concentration (MIC)” value [1] was 0.78, the “Minimum inhibitory concentration (MIC)” value [2] was 0.78 and the “Minimum inhibitory concentration (MIC)” value [3] was 12.5. For the same compound, the “Minimum inhibitory concentration (MIC)” value [4] was 0.20, the “Minimum inhibitory concentration (MIC)” value [5] was 0.39 and the “Minimum inhibitory concentration (MIC)” value [6] was 0.10. The “Minimum inhibitory concentration (MIC)” value [7] was 25, the “Minimum inhibitory concentration (MIC)” value [8] was 25 and the “Minimum inhibitory concentration (MIC)” value [9] was 1.56. For the same compound, the “Minimum inhibitory concentration (MIC)” value [10] was 12.5, the “Minimum inhibitory concentration (MIC)” value [11] was 12.5 and the “Minimum inhibitory concentration (MIC)” value [12] was 50. For the same compound, the “Minimum inhibitory concentration (MIC)” value [13] was 0.025, the “effective against Pseudomonas aeruginosa” value [14] was “effective” and the “Minimum inhibitory concentration (MIC)” value [15] was 100. For the same compound, the “Minimum inhibitory concentration (MIC)” value [16] was 1.56, the concentration at 0.5 h ([17]; 1/2 hour) was 32000 ng/mL and the concentration at 0.25 h ([17]; 1/4 hour) was 34000 ng/mL. The concentration at 5 min ([17]; 1/12 hour) was 25000 ng/mL, the concentration at 1 h ([17]; 1 hour) was 13000 ng/mL and the “Minimum inhibitory concentration (MIC)” value [18] was 0.10.

In the case of CO/N=C(\C(=O)N[C@@H]1C(=O)N2C(C(=O)O)=C(CSc3nc(=O)c(=O)[nH]n3C)CS[C@H]12)c1csc(N)n1 [Ceftriaxone, reference compound], the “Minimum inhibitory concentration (MIC)” value [1] is reported as 3.13, the “Minimum inhibitory concentration (MIC)” value [2] is reported as 1.56 and the “Minimum inhibitory concentration (MIC)” value [3] is reported as 50. For the same compound, the “Minimum inhibitory concentration (MIC)” value [4] was 0.10, the “Minimum inhibitory concentration (MIC)” value [5] was 0.39 and the “Minimum inhibitory concentration (MIC)” value [6] was 0.05. For the same compound, the “Minimum inhibitory concentration (MIC)” value [7] was 100, the “Minimum inhibitory concentration (MIC)” value [8] was 100 and the “Minimum inhibitory concentration (MIC)” value [9] was 0.78. For the same compound, the “Minimum inhibitory concentration (MIC)” value [10] was 1.56, the “Minimum inhibitory concentration (MIC)” value [11] was 12.5 and the “Minimum inhibitory concentration (MIC)” value [12] was 0.025. For the same compound, the “Minimum inhibitory concentration (MIC)” value [13] was 0.025, the “Minimum inhibitory concentration (MIC)” value [15] was 100 and the “Minimum inhibitory concentration (MIC)” value [16] was 3.13. The “Minimum inhibitory concentration (MIC)” value [18] was 0.10.

In the case of CCO/N=C(\C(=O)N[C@@H]1C(=O)N2C(C(=O)O)=C(CSc3nc(=O)c(O)nn3C)[C@H](C)O[C@H]12)c1csc(N)n1 [Compound No. 2, (6R,7R)-7-[(z)-2-(2-aminothiazol-4-yl)-2-(ethoxyimino)acetamido]-(2S)-2-methyl-3-(2,5-dihydro-6-hydroxy-2-methyl-5-oxo-1,2,4-triazin-3-yl)thiomethyl-l-oxa-l-dethia-ceph-3-em-4-carboxylic acid], the “Minimum inhibitory concentration (MIC)” value [1] is reported as 1.56, the “Minimum inhibitory concentration (MIC)” value [2] is reported as 1.56 and the “Minimum inhibitory concentration (MIC)” value [3] is reported as 12.5. For the same compound, the “Minimum inhibitory concentration (MIC)” value [4] was 0.39, the “Minimum inhibitory concentration (MIC)” value [5] was 0.78 and the “Minimum inhibitory concentration (MIC)” value [6] was 0.39. The “Minimum inhibitory concentration (MIC)” value [7] was 6.25, the “Minimum inhibitory concentration (MIC)” value [8] was 25 and the “Minimum inhibitory concentration (MIC)” value [9] was 0.78. The “Minimum inhibitory concentration (MIC)” value [10] was 0.20, the “Minimum inhibitory concentration (MIC)” value [11] was 6.25 and the “effective against Streptococcus faecalis” value [19] was “effective”. The “Minimum inhibitory concentration (MIC)” value [12] was 0.20, the “Minimum inhibitory concentration (MIC)” value [13] was 0.20 and the “effective against Pseudomonas aeruginosa” value [14] was “effective”. The “Minimum inhibitory concentration (MIC)” value [15] was 50, the “Minimum inhibitory concentration (MIC)” value [16] was 1.56 and the “Minimum inhibitory concentration (MIC)” value [18] was 0.39.

For CO/N=C(\C(=O)N[C@@H]1C(=O)N2C(C(=O)O)=C(CSc3nc(=O)c(O)nn3C)CO[C@H]12)c1csc(N)n1 [Compound No. 3, (6R,7R)-7-[(Z)-2-(2-aminothiazol-4-yl)-2-(methoxyimino)acetamido]-3-(2,5-dihydro-6-hydroxy-2-methyl-5-oxo-1,2,4-triazin-3-yl) thiomethyl-l-oxa-l-dethia-ceph-3-em-4-carboxylic acid], the “Minimum inhibitory concentration (MIC)” value [1] was 12.5, the “Minimum inhibitory concentration (MIC)” value [2] was 0.78 and the “Minimum inhibitory concentration (MIC)” value [3] was 25. The “Minimum inhibitory concentration (MIC)” value [4] was 0.39, the “Minimum inhibitory concentration (MIC)” value [5] was 0.39 and the “Minimum inhibitory concentration (MIC)” value [6] was 0.05. For the same compound, the “Minimum inhibitory concentration (MIC)” value [7] was 50, the “Minimum inhibitory concentration (MIC)” value [8] was 50 and the “Minimum inhibitory concentration (MIC)” value [9] was 3.13. For the same compound, the “Minimum inhibitory concentration (MIC)” value [10] was 0.39, the “Minimum inhibitory concentration (MIC)” value [11] was 12.5 and the “Minimum inhibitory concentration (MIC)” value [12] was 0.05. For the same compound, the “Minimum inhibitory concentration (MIC)” value [13] was 0.10, the “Minimum inhibitory concentration (MIC)” value [15] was 50 and the “Minimum inhibitory concentration (MIC)” value [16] was 0.78. For the same compound, the “Minimum inhibitory concentration (MIC)” value [18] was 0.10.

In the case of CCO/N=C(\C(=O)N[C@@H]1C(=O)N2C(C(=O)O)=C(CSc3nc(=O)c(O)nn3C)CO[C@H]12)c1csc(N)n1 [Compound No. 4, (6R,7R)-7-[(Z)-2-(2-aminothiazol-4-yl)-2-(ethoxyimino)acetamido]-3-(2,5-dihydro-6-hydroxy-2-methyl-5-oxo-l,2,4-triazin-3-yl) thiomethyl-l-oxa-l-dethia-ceph-3-em-4-carboxylic acid], the “Minimum inhibitory concentration (MIC)” value [1] is reported as 25, the “Minimum inhibitory concentration (MIC)” value [2] is reported as 0.78 and the “Minimum inhibitory concentration (MIC)” value [3] is reported as 6.25. The “Minimum inhibitory concentration (MIC)” value [5] was 0.39, the “Minimum inhibitory concentration (MIC)” value [6] was 0.10 and the “Minimum inhibitory concentration (MIC)” value [8] was 25. For the same compound, the “Minimum inhibitory concentration (MIC)” value [9] was 1.56, the “Minimum inhibitory concentration (MIC)” value [10] was 0.20 and the “Minimum inhibitory concentration (MIC)” value [12] was 0.025. For the same compound, the “Minimum inhibitory concentration (MIC)” value [13] was 0.05, the “effective against Pseudomonas aeruginosa” value [14] was “effective” and the “Minimum inhibitory concentration (MIC)” value [15] was 100. The “Minimum inhibitory concentration (MIC)” value [16] was 1.56 and the “Minimum inhibitory concentration (MIC)” value [18] was 0.10.

For C[C@@H]1O[C@@H]2[C@H](NC(=O)C(NC=O)c3csc(N)n3)C(=O)N2C(C(=O)O)=C1CSc1nc(=O)c(O)nn1C (stereo partly drawn) [Compound No. 6, (6R,7R)-7-[2-(2-aminothiazol-4-yl)-2-(form-amido)acetamido]-(2S)-2-methyl-3-(2,5-dihydro-6-hydroxy-2-methyl-5-oxo-1,2,4-triazin-3-yl) thiomethyl-l-oxa-l-dethia-ceph-3-em-4-carboxylic acid], the “Minimum inhibitory concentration (MIC)” value [1] was 12.5, the “Minimum inhibitory concentration (MIC)” value [2] was 0.78 and the “Minimum inhibitory concentration (MIC)” value [3] was 100. For the same compound, the “Minimum inhibitory concentration (MIC)” value [4] was 0.20, the “Minimum inhibitory concentration (MIC)” value [5] was 0.10 and the “Minimum inhibitory concentration (MIC)” value [6] was 0.025. The “Minimum inhibitory concentration (MIC)” value [7] was 50, the “Minimum inhibitory concentration (MIC)” value [8] was 100 and the “Minimum inhibitory concentration (MIC)” value [9] was 1.56. For the same compound, the “Minimum inhibitory concentration (MIC)” value [10] was 6.24, the “Minimum inhibitory concentration (MIC)” value [11] was 50 and the “effective against Streptococcus faecalis” value [19] was “effective”. The “Minimum inhibitory concentration (MIC)” value [12] was 0.10, the “Minimum inhibitory concentration (MIC)” value [13] was 50 and the “Minimum inhibitory concentration (MIC)” value [15] was 100. The “Minimum inhibitory concentration (MIC)” value [16] was 1.56 and the “Minimum inhibitory concentration (MIC)” value [18] was 0.10.

For Cn1nc(O)c(=O)nc1SCC1=C(C(=O)O)N2C(=O)[C@@H](NC(=O)C(NC=O)c3csc(N)n3)[C@H]2OC1 (stereo partly drawn) [Compound No. 8, (6R,7R)-7-[2-(2-aminothiazol-4-yl)-2-(form-amido)acetamido]-3-(2,5-dihydro-6-hydroxy-2-methyl-5-oxo-1,2,4-triazin-3-yl)thiomethyl-l-oxa-l-dethia-ceph-3-em-4-carboxylic acid], the “Minimum inhibitory concentration (MIC)” value [1] was 25, the “Minimum inhibitory concentration (MIC)” value [2] was 1.56 and the “Minimum inhibitory concentration (MIC)” value [3] was 100. The “Minimum inhibitory concentration (MIC)” value [4] was 0.20, the “Minimum inhibitory concentration (MIC)” value [5] was 0.10 and the “Minimum inhibitory concentration (MIC)” value [6] was 0.025. The “Minimum inhibitory concentration (MIC)” value [7] was 50, the “Minimum inhibitory concentration (MIC)” value [8] was 100 and the “Minimum inhibitory concentration (MIC)” value [9] was 1.56. For the same compound, the “Minimum inhibitory concentration (MIC)” value [10] was 6.24, the “Minimum inhibitory concentration (MIC)” value [11] was 100 and the “Minimum inhibitory concentration (MIC)” value [12] was 0.10. For the same compound, the “Minimum inhibitory concentration (MIC)” value [13] was 100, the “Minimum inhibitory concentration (MIC)” value [15] was 100 and the “Minimum inhibitory concentration (MIC)” value [16] was 1.56. The “Minimum inhibitory concentration (MIC)” value [18] was 0.05.

With CO[C@@]1(NC(=O)C(C(=O)O)c2ccc(O)cc2)C(=O)N2C(C(=O)O)=C(CSc3nnnn3C)CO[C@@H]21 (some centres unmarked) [Latamoxef, reference compound] the “Minimum inhibitory concentration (MIC)” value [1] was 25, the “Minimum inhibitory concentration (MIC)” value [2] was 3.13 and the “Minimum inhibitory concentration (MIC)” value [3] was 6.25. For the same compound, the “Minimum inhibitory concentration (MIC)” value [4] was 0.10, the “Minimum inhibitory concentration (MIC)” value [5] was 0.05 and the “Minimum inhibitory concentration (MIC)” value [6] was 0.05. The “Minimum inhibitory concentration (MIC)” value [7] was 100, the “Minimum inhibitory concentration (MIC)” value [8] was 6.25 and the “Minimum inhibitory concentration (MIC)” value [9] was 0.39. For the same compound, the “Minimum inhibitory concentration (MIC)” value [10] was 100, the “Minimum inhibitory concentration (MIC)” value [11] was 12.5 and the “Minimum inhibitory concentration (MIC)” value [12] was 0.10. For the same compound, the “Minimum inhibitory concentration (MIC)” value [13] was 0.20, the “Minimum inhibitory concentration (MIC)” value [15] was 100 and the “Minimum inhibitory concentration (MIC)” value [16] was 3.13. The “Minimum inhibitory concentration (MIC)” value [18] was 0.10.
